# Like-named read-outs stand apart in the source and are kept apart here.
# Tested on: HIV-1 (strain LAV)
# Experiment: microbe, parasite or virus in culture
# Assay type: cell-based
# Conditions: for EC50: read-out: EC50
# Description: It is often desirable to screen a number of racemic mixtures of nucleosides as a preliminary step to determine which warrant further resolution into enantiomerically enriched components and evaluation of antiviral activity. The ability of nucleosides to inhibit HIV can be measured by various experimental techniques. The technique used herein, and described in detail below, measures the inhibition of viral replication in phytohemagglutinin (PHA) stimulated human peripheral blood mononuclear (PBM) cells infected with HIV-1 (strain LAV). The amount of virus produced is determined by measuring the virus-coded reverse transcriptase enzyme. The amount of enzyme produced is proportional to the amount of virus produced.
# A. Three-day-old phytohemagglutinin-stimulated PBM cells (10^6 cells/ml) from hepatitis B and HIV-1 seronegative healthy donors were infected with HIV-1 (strain LAV) at a concentration of about 100 times the 50% tissue culture infectious dose (TICD 50) per ml and cultured in the presence and absence of various concentrations of antiviral compounds.
# B. Approximately one hour after infection, the medium, with the compound to be tested (2 times the final concentration in medium) or without compound, was added to the flasks (5 ml; final volume 10 ml). AZT was used as a positive control.
# C. The cells were exposed to the virus (about 2×10^5 dpm/ml, as determined by reverse transcriptase assay) and then placed in a CO2 incubator. HIV-1 (strain LAV) was obtained from the Center for Disease Control, Atlanta, Ga. The methods used for culturing the PBM cells, harvesting the virus and determining the reverse transcriptase activity were those described by McDougal et al. (J. Immun. Meth. 76, 171-183, 1985) and Spira et al. (J. Clin. Meth. 25, 97-99, 1987), except that fungizone was not included in the medium (see Schinazi, et al., Antimicrob. Agents Chemother. 32, 1784-1787 (1988); Id., 34:1061-1067 (1990)).
# D. On day 6, the cells and supernatant were transferred to a 15 ml tube and centrifuged at about 900 g for 10 minutes. Five ml of supernatant were removed and the virus was concentrated by centrifugation at 40,000 rpm for 30 minutes (Beckman 70.1 Ti rotor). The solubilized virus pellet was processed for determination of the levels of reverse transcriptase. Results are expressed in dpm/ml of sampled supernatant. Virus from smaller volumes of supernatant (1 ml) can also be concentrated by centrifugation prior to solubilization and determination of reverse transcriptase levels.
# [1] = Human immunodeficiency virus 1, PBMC, comparison nucleosides, source not stated
# [2] = human PBM cells infected with HIV-1, enantiomers isolated by chiral HPLC (Example 3)
compound,measurement,setting,value
"[N-]=[N+]=N[C@H]1C[C@H](n2ccc(=O)[nH]c2=O)O[C@@H]1CO [AZDU, 3′-azido-2′,3′-dideoxyuridine, reference compound]",EC50,[1],180 to 460 nM
"Nc1ccn(C2CSC(CO)O2)c(=O)n1 (stereo not drawn) [BCH-189 (+), 2-hydroxymethyl-5-(cytosin-1-yl)-1,3-oxathiolane]",DPM/ml,0.00085 μM,"71,795 DPM/ml"
same,DPM/ml,0.00425 μM,"99,710 DPM/ml"
same,DPM/ml,0.0085 μM,"68,355 DPM/ml"
same,DPM/ml,0.0415 μM,"82,845 DPM/ml"
same,DPM/ml,0.0825 μM,"65,100 DPM/ml"
same,DPM/ml,0.412 μM,"43,260 DPM/ml"
same,inhibition at 0.00085 µM,"Human immunodeficiency virus 1, PBMC, 0.00085 μM, read-out: % Inhibition (Corrected)",28.7%
same,inhibition at 0.00425 µM,"Human immunodeficiency virus 1, PBMC, 0.00425 μM, read-out: % Inhibition (Corrected)",-2.1%
same,inhibition at 0.0085 µM,"Human immunodeficiency virus 1, PBMC, 0.0085 μM, read-out: % Inhibition (Corrected)",32.5%
same,inhibition at 0.0415 µM,"Human immunodeficiency virus 1, PBMC, 0.0415 μM, read-out: % Inhibition (Corrected)",16.5%
same,inhibition at 0.0825 µM,"Human immunodeficiency virus 1, PBMC, 0.0825 μM, read-out: % Inhibition (Corrected)",36.1%
same,inhibition at 0.412 µM,"Human immunodeficiency virus 1, PBMC, 0.412 μM, read-out: % Inhibition (Corrected)",60.3%
same,EC50,[2],230 nM
"Nc1ccn(C2CSC(CO)O2)c(=O)n1 (stereo not drawn) [BCH-189 (−), 2-hydroxymethyl-5-(cytosin-1-yl)-1,3-oxathiolane]",DPM/ml,0.001 μM,"76,400 DPM/ml"
same,DPM/ml,0.005 μM,"66,875 DPM/ml"
same,DPM/ml,0.01 μM,"54,170 DPM/ml"
same,DPM/ml,0.05 μM,"57,615 DPM/ml"
same,DPM/ml,0.1 μM,"34,705 DPM/ml"
same,DPM/ml,0.5 μM,"15,250 DPM/ml"
same,inhibition at 0.001 µM,"Human immunodeficiency virus 1, PBMC, 0.001 μM, read-out: % Inhibition (Corrected)",23.6%
same,inhibition at 0.005 µM,"Human immunodeficiency virus 1, PBMC, 0.005 μM, read-out: % Inhibition (Corrected)",34.2%
same,inhibition at 0.01 µM,"Human immunodeficiency virus 1, PBMC, 0.01 μM, read-out: % Inhibition (Corrected)",48.2%
same,inhibition at 0.05 µM,"Human immunodeficiency virus 1, PBMC, 0.05 μM, read-out: % Inhibition (Corrected)",44.4%
same,inhibition at 0.1 µM,"Human immunodeficiency virus 1, PBMC, 0.1 μM, read-out: % Inhibition (Corrected)",69.7%
same,inhibition at 0.5 µM,"Human immunodeficiency virus 1, PBMC, 0.5 μM, read-out: % Inhibition (Corrected)",91.2%
same,EC50,[2],16 nM
"Nc1ncnc2c1ncn2[C@H]1CC[C@@H](CO)O1 [DDA, 2′,3′-dideoxyadenosine, reference compound]",EC50,[1],910 nM
"Nc1ccn([C@H]2CC[C@@H](CO)O2)c(=O)n1 [DDC, dideoxycytidine, reference compound]",EC50,[1],11 nM
"Cc1cn([C@H]2CC[C@@H](CO)O2)c(=O)[nH]c1=O [DDT, 3′-dideoxythymidine, reference compound]",EC50,"comparison nucleosides, source not stated",170 nM

# Reference: US20090239887A1, “Method of resolution and antiviral activity of 1,3-oxathiolane nucleoside enantiomers” (Emory University, priority 1990, published 2009)
